This note sets out measurements from US20210317102A1, “INHIBITORS OF INTEGRATED STRESS RESPONSE PATHWAY” (Praxis Biotech LLC, priority 2019, published 2021).

For one assay, the system named is CHO cells. As to the kind of experiment: Protein secretion in a CHO cell-based assay. The note with it: 1 μM compound 10, media without FBS, 24 h, vs vehicle. The procedure:
CHO cells were maintained at 37° C. and 5% CO2 in DMEM supplemented with 10% fetal bovine serum (FBS), 2 mM L-glutamine, 100 U/ml penicillin, and 100 μg/ml streptomycin. After reaching 80% of confluence, cells were detached and seeded on 6-well plates in complete media, allowed to recover for 48 h. Cells were then washed three times with PBS and treated with compound 10 at […] in 1 mL of media without FBS for 24 h. Treatment with 0.1% DMSO was used as control (vehicle). After 24 h treatment, supernatant (SN) which contains secreted proteins was extracted and protease and phosphatase inhibitors (Roche) were added to each sample. SN were centrifuged at 2,000 g for 10 min to discard any cellular debris and 900 μL SN were transferred to empty microtubes with 400 μL methanol by mixing well. 200 μL of chloroform was added to the mix and then samples were centrifuged at 14,000 g for 2 minutes. Top aqueous layer was discarded by pipetting off and 400 μL methanol is added to each sample by mixing well. Samples were then centrifuged at 17,000 g for 8 minutes and methanol was discarded by pipetting off without disturbing the protein pellet. […] Secreted proteins were analyzed by SDS-PAGE and Coomassie staining. […] Percentage was calculated as the percent relative to protein secretion levels from CHO cells treated with vehicle which correspond to 100%.

Assay [1] concerns ATF4 expression, HEK293T cells carrying the ATF4 luciferase reporter. Kind of assay: ATF4 expression inhibition assay (ATF4 luciferase reporter). It is filed as cell-based. The note with it: Homo sapiens, HEK-293T, 100 nM thapsigargin, 3 hours. Put shortly:
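Stable HEK293T line expressing firefly luciferase behind the human full-length ATF4 5′UTR; cells stressed with 100 nM thapsigargin alongside compound (1 nM–10 μM) for 3 h at 37 °C. Luminescence normalized to Tg alone (0% inhibition) and untreated cells (100% inhibition) to give % ATF4 inhibition.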
Background: In a reporter assay the amount or activity of a reporter protein is the signal.

As to `O=C(COc1ccc(Cl)c(F)c1)N[C@H]1CC[C@H](CNC(=O)c2ccc3cc(Cl)ccc3n2)CC1` [Compound 10, trans-6-chloro-N-((4-(2-(4-chloro-3-fluorophenoxy)acetamido)cyclohexyl)methyl)quinoline-2-carboxamide], the “Secretion of proteins in CHO cells” value in the assay with CHO cells is on record as “increased secretion of proteins”. Further, in assay [1], the midpoint of inhibition, the IC50, lay at 106 nM.

What is called IC50 is the concentration that inhibits the measured activity by half.
